Data taken from patent US20240116889A1, “ANTIVIRAL COMPOUNDS AND METHODS” (priority 2019, published 2024).

Columns and labels:
pdm H1N1 virus = type: cell-based, influenza A virus (A/California/07/2009)
USSR H1N1 virus [1] = type: cell-based, influenza A virus (A/USSR/77)
A549 cells = test: Cell viability of A549 cells (CellTiter-Glo 2.0); type: cell-based, human; conditions: RDV continuous, TG 30 min, overnight
Procedure: (A) A549 cells were primed with indicated TG, 0.3 μM RDV or DMSO control for 30 min, washed twice with PBS and infected with 0.01 MOI of CoV OC43 for 2 h, after which cells were washed again with PBS and incubated in fresh infection media (OptiMEM supplemented with 0.1 μg/ml TPCK-trypsin for TG primed cells, or fresh media in the continuous presence of RDV. At 24, 48 and 72 hpi, viral RNA extraction was performed on collected supernatants followed by one-step reverse transcription qPCR to detect the relative copy number of hCoV OC43 replicase polyprotein lab RNA, based on relative Ct method. Indicated significance relative to corresponding RDV-treated cells based on 2-way ANOVA Tukey's multiple comparisons test. (B) As in (A), A549 cells were primed continuously with RDV, or for 30 min with indicated TG or DMSO, washed, cultured overnight and subjected to cell viability assay (CellTiter-Glo 2.0 Cell Viability Assay, Promega).

NPTr cells = conditions: for cell viability after priming: 30 min priming at doses used for infection studies
RIG-I, OAS1 and PKR = type: cell-based, pig; conditions: NPTr cells (TG also NHBE cells and myoblasts); priming before or during infection
[2] = system: extracellular Ca^2+ influx; test: Intracellular Ca2+ monitoring assay (Fluo-8) in NPTr cells; type: cell-based, pig
USSR H1N1 virus [3] = type: cell-based, influenza A virus (A/USSR/77); remark: listed apart in the source
[4] = system: RSV (A2 strain, ATCC VR-1540); test: RSV production from infected HEp2 cells (immuno-detection / RT-qPCR); type: cell-based, human respiratory syncytial virus; conditions: HEp-2 cells; TG 30 min priming, Riba continuously present; four days post-infection
SARS-CoV-2 = SARS-CoV-2 replication in Calu-3 cells (RT-qPCR of media); type: cell-based; conditions: Calu-3 cells; […]; HC primed and continuously present
human coronavirus OC43 = type: cell-based; conditions: MRC-5 cells; TG 0.05 or 0.5 μM 30 min pre-infection; HC pre-infection or continuous

Molecule: C[C@@H]1CC[C@H]2[C@@H](C)C(=O)O[C@@H]3O[C@@]4(C)CC[C@@H]1[C@]32OO4 [artemisinin]
- progeny virus output vs DMSO control (pdm H1N1 virus): reduces progeny viral output
- progeny virus output vs DMSO control (USSR H1N1 virus [1]): reduces progeny viral output

Molecule: CCC(CC)COC(=O)[C@H](C)N[P@](=O)(OC[C@H]1O[C@@](C#N)(c2ccc3c(N)ncnn23)[C@H](O)[C@@H]1O)Oc1ccccc1 [RDV, remdesivir, reference compound]
- cell viability (A549 cells): no adverse effect on cell viability

Molecule: COc1ccc(OC)c(-c2ccc(NC(=O)c3ccncc3F)cc2)c1 [Synta66]
- progeny virus output vs DMSO control (USSR H1N1 virus [1]): small increase in progeny virus release
- cell viability after priming (NPTr cells): Non-toxic

Molecule: Cc1nnsc1C(=O)Nc1ccc(-n2nc(C(F)(F)F)cc2C(F)(F)F)cc1 [BTP2]
- progeny virus output vs DMSO control (USSR H1N1 virus [1]): small increase in progeny virus release
- cell viability after priming (NPTr cells): Non-toxic

Molecule: CC1=C2[C@H](/C=C(\C)C(=O)O)CC[C@@H](C)[C@H]2CC1 [valerenic acid]
- progeny virus output vs DMSO control (USSR H1N1 virus [1]): reduced USSR H1N1 virus production like that of TG

Molecule: tunicamycin
- expression of type I IFN associated genes in response to infection (RIG-I, OAS1 and PKR): little change in the expression of type I IFN associated genes
- extracellular Ca^2+ influx ([2]; non-toxic doses (CPA up to 5 μM; TG 10 min)): did not induce Ca^2+ influx
- progeny virus output vs DMSO control (pdm H1N1 virus): only slightly reduced virus production
- virus production relative to correspondingly infected TG primed cells (pdm H1N1 virus; NPTr cells, […]): 2.8 times
- progeny virus output vs DMSO control (USSR H1N1 virus [1]): only slightly reduced virus production
- virus production relative to correspondingly infected TG primed cells (USSR H1N1 virus [1]; NPTr cells, […]): 7.5 times
- cell viability after priming (NPTr cells): did not affect cell viability

Molecule: CC1=C2CC[C@@H](C)[C@H]2[C@H]2[C@@H](CC1)C2(C)C [(+)-ledene, reference compound]
- progeny virus output (USSR H1N1 virus [3]): dramatic reduction in progeny virus output
- progeny virus output vs DMSO control (USSR H1N1 virus [1]): reduced virus production like that of TG

Molecule: C=C1C(=O)O[C@@H]2[C@H]3C(C)=CC(=O)C3=C(C)CC[C@@H]12 [dehydroleucodine, reference compound]
- progeny virus output (USSR H1N1 virus [3]): reduced progeny virus output
- progeny virus output vs DMSO control (USSR H1N1 virus [1]): reduced virus production like that of TG

Molecule: NC(=O)c1ncn([C@@H]2O[C@H](CO)[C@@H](O)[C@H]2O)n1 [Riba, ribavirin, reference compound]
- RSV progeny virus production, viral M-gene RNA [4]: significantly inhibited

Molecule: CC(=O)C1=C(O)[C@@H]2[C@H]3c4c[nH]c5cccc(c45)C[C@H]3C(C)(C)N2C1=O [CPA, Cyclopiazonic acid]
- concentration from which Ca^2+ influx was detected [2]: ≥ 10 µM
- reduction in ATP production (NPTr cells; 5 μM CPA for 30 min, 24 h incubation): 8.3%

Molecule: CCN(CCO)CCCC(C)Nc1ccnc2cc(Cl)ccc12 (stereo not drawn) [HC, hydroxychloroquine, reference compound]
- SARS-CoV-2 replication (SARS-CoV-2): no consistent effect
- hCoV OC43 replication / progeny production (human coronavirus OC43): required its continuous presence during infection
